The text below walks through data of the supplement of paper PMC11208160.
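Further: IS621 recombinase and bridge RNA in Escherichia coli cells.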

This series is described as follows: recombinant barcode read abundance after kanamycin selection (control-corrected) (log10(CPM+1)); higher = more efficient recombination; sequences stand for … in AGTGCAGAGAAAATCGGCCAGTTTTCTCTGCCTGCAGTCCGCATGCCGT…AGATTTATGCAGCGGACTGCCTTTCTCCCAAAGTGATAAACCGGACAGTATCATGGACCGGTTTTCCCGGTAATCCGTATTTGCAAGGTTGGTTTCACT; site = the 11-nt target. As for the experimental part: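 Pooled E. coli target-specificity screen for the IS621 bridge recombinase. Each library plasmid pairs an 11-nt target (CT core) with a bridge RNA whose target-binding loop (9-nt LTG + 4-nt RTG) is reprogrammed; the rest of the 177-nt WT IS621 bridge RNA scaffold is fixed. The plasmid is co-electroporated with a WT donor plasmid; recombinase is induced with 0.1 mM IPTG and recombinants are selected on kanamycin. Recombinant barcodes are sequenced, converted to CPM, averaged over two biological replicates and corrected by the unselected control CPM. Molecule = full bridge RNA written as DNA: LTG = specificity nt 1-9, RTG = reverse complement of specificity nt 8-11, in the WT scaffold.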
Regarding “AATGGGTCTTGGGTTCTAACCTGTTGCCT (site AATGGGCCTAG)”, the “recombinant barcode read abundance (log10)” value is 0.132.
In the case of “AATGGGTCTTGGGTTCTAACCTGTTGCCT (site AATGGGGCTAG)” it was 0.04; in that of “AATGGGTCTTGGGTTCTAACCTGTTGCCT (site AATGGGTCTAG)”, 1.3.
For the sequence “AATTAAGCTTGGGTTCTAACCTGTTGCCT (site AATTAAGCTAG)”, the “recombinant barcode read abundance (log10)” value was determined as 1.28.
Turning to “AATTAAGCTTGGGTTCTAACCTGTTGCCT (site AATTCAGCTAG)”, the “recombinant barcode read abundance (log10)” value worked out at 0.159.
In the case of “AATTAAGCTTGGGTTCTAACCTGTTGCCT (site AATTGAGCTAG)” it was 0.088; in that of “AATTAAGCTTGGGTTCTAACCTGTTGCCT (site AATTTAGCTAG)”, 0.223; in that of “AATTCACCTTGGGTTCTAACCTGTTGCCT (site AATTCACCTAG)”, 0.454.
In the case of “AATTCACCTTGGGTTCTAACCTGTTGCCT (site CATTCACCTAG)” it was 0.0863; in that of “AATTCACCTTGGGTTCTAACCTGTTGCCT (site GATTCACCTAG)”, 0.0262.
In the case of “AATTCACCTTGGGTTCTAACCTGTTGCCT (site TATTCACCTAG)” it was 0.129; in that of “AATTCAGCTTGGGTTCTAACCTGTTGCCT (site AATTAAGCTAG)”, 0.0713.
With “AATTCAGCTTGGGTTCTAACCTGTTGCCT (site AATTCAGCTAG)”, the “recombinant barcode read abundance (log10)” value was 0.26.
In the case of “AATTCAGCTTGGGTTCTAACCTGTTGCCT (site AATTGAGCTAG)” it was 0.164; in that of “AATTCAGCTTGGGTTCTAACCTGTTGCCT (site AATTTAGCTAG)”, 0.0408.
Next, “AATTCGGCTTGGGTTCTAACCTGTTGCCT (site AATTCGGCTAG)”: 0.305; “AATTCGGCTTGGGTTCTAACCTGTTGCCT (site ACTGCGGCTAG)”: 0.407.
With “AATTGTCCTTGGGTTCTAACCTGTTGCAT (site AATTGTCCTAA)”, the “recombinant barcode read abundance (log10)” value turned out to be 0.296.
In the case of “AATTGTCCTTGGGTTCTAACCTGTTGCAT (site AATTGTCCTAC)” it was 0.102.
In the case of “AATTGTCCTTGGGTTCTAACCTGTTGCAT (site AATTGTCCTAG)” it was 0.0432; in that of “AATTGTCCTTGGGTTCTAACCTGTTGCAT (site AATTGTCCTAT)”, 0.249.
In the case of “AATTGTCCTTGGGTTCTAACCTGTTGCCT (site AATTGTCCTAA)” it was 0.411; in that of “AATTGTCCTTGGGTTCTAACCTGTTGCCT (site AATTGTCCTAC)”, 0.0374.
Regarding “AATTGTCCTTGGGTTCTAACCTGTTGCCT (site AATTGTCCTAG)”, the “recombinant barcode read abundance (log10)” value turned out to be 0.407.
Next, “AATTGTCCTTGGGTTCTAACCTGTTGCCT (site AATTGTCCTAT)”: 0.0177; “AATTTGACTTGGGTTCTAACCTGTTGCCT (site AAATTGACTAG)”: 0.218; “AATTTGACTTGGGTTCTAACCTGTTGCCT (site AACTTGACTAG)”: 0.0252.
For “AATTTGACTTGGGTTCTAACCTGTTGCCT (site AAGTTGACTAG)”, the “recombinant barcode read abundance (log10)” value came out at 0.115.
Regarding “AATTTGACTTGGGTTCTAACCTGTTGCCT (site AATTTGACTAG)”, the “recombinant barcode read abundance (log10)” value worked out at 0.576.
Consider “ACAAGAGCTTGGGTTCTAACCTGTTGCCT (site ACAAGAGCTAG)”, for which the “recombinant barcode read abundance (log10)” value was found to be 1.07.
In the case of “ACAAGAGCTTGGGTTCTAACCTGTTGCCT (site ACCAGAGCTAG)”, the “recombinant barcode read abundance (log10)” value turned out to be 0.266.
“ACAAGAGCTTGGGTTCTAACCTGTTGCCT (site ACGAGAGCTAG)”: the “recombinant barcode read abundance (log10)” value stood at 0.0837.
Next, “ACAAGAGCTTGGGTTCTAACCTGTTGCCT (site ACTAGAGCTAG)”: 0.133; “ACAATACCTTGGGTTCTAACCTGTTGCCG (site ACAATACCTCG)”: 0.408; “ACAATACCTTGGGTTCTAACCTGTTGCCG (site ACAATAGCTAG)”: 0.51.
Next, “ACAATCTCTTGGGTTCTAACCTGTTGCTC (site ACAATCTCTGA)”: 1.22; “ACAATCTCTTGGGTTCTAACCTGTTGCTC (site CACCAGACTTG)”: 0.066.
As to “ACACACCCTTGGGTTCTAACCTGTTGCGG (site ACACACCCTCC)”, the “recombinant barcode read abundance (log10)” value was determined as 2.53.
Regarding “ACACACCCTTGGGTTCTAACCTGTTGCGG (site ACGCACGCTCC)”, the “recombinant barcode read abundance (log10)” value was determined as 0.0353.
On to “ACACGAGCTTGGGTTCTAACCTGTTGCAG (site ACACGAGCTCT)”, for which the “recombinant barcode read abundance (log10)” value is 1.3.
In the case of “ACACGAGCTTGGGTTCTAACCTGTTGCAG (site TGCGATACTAA)” it was 0.326; in that of “ACACGGACTTGGGTTCTAACCTGTTGCTA (site ACACGGACTTA)”, 1.38.
Next, “ACACGGACTTGGGTTCTAACCTGTTGCTA (site GTGGTACCTAT)”: 0.0282.
In the case of “ACACTCCCTTGGGTTCTAACCTGTTGCCT (site AAGCTCCCTAG)” it was 0.415; in that of “ACACTCCCTTGGGTTCTAACCTGTTGCCT (site ACACTCCCTAG)”, 0.294.
As to “ACACTCCCTTGGGTTCTAACCTGTTGCTG (site ACACACTCTCA)”, the “recombinant barcode read abundance (log10)” value is 0.104.
In the case of “ACACTCCCTTGGGTTCTAACCTGTTGCTG (site ACACTCCCTCA)” it was 2.14; in that of “ACACTGTCTTGGGTTCTAACCTGTTGCGG (site ACAATGTCTCC)”, 0.0253.
In the case of “ACACTGTCTTGGGTTCTAACCTGTTGCGG (site ACACTGTCTCC)” it was 1.49.
As to “ACACTGTCTTGGGTTCTAACCTGTTGCGG (site ACAGTGTCTCC)”, the “recombinant barcode read abundance (log10)” value came out at 0.379.
In the case of “ACACTGTCTTGGGTTCTAACCTGTTGCGG (site ACATTGTCTCC)”, the “recombinant barcode read abundance (log10)” value is 0.429.
With “ACAGAGGCTTGGGTTCTAACCTGTTGCCG (site ACAGAGGCTCG)”, the “recombinant barcode read abundance (log10)” value came to 1.12.
In the case of “ACAGAGGCTTGGGTTCTAACCTGTTGCCG (site ACTCAGGCTCG)” it was 0.155; in that of “ACAGCCGCTTGGGTTCTAACCTGTTGCCT (site ACAGACGCTAG)”, 0.221; in that of “ACAGCCGCTTGGGTTCTAACCTGTTGCCT (site ACAGCCGCTAG)”, 1.46.
Next, “ACAGCCGCTTGGGTTCTAACCTGTTGCCT (site ACAGGCGCTAG)”: 0.108.
Turning to “ACAGCCGCTTGGGTTCTAACCTGTTGCCT (site ACAGTCGCTAG)”, the “recombinant barcode read abundance (log10)” value was found to be 0.118.
Next, “ACAGCTTCTTGGGTTCTAACCTGTTGCCT (site ACAGCTACTAG)”: 0.0838.
In the case of “ACAGCTTCTTGGGTTCTAACCTGTTGCCT (site ACAGCTTCTAG)” it was 1.53; in that of “ACAGGCGCTTGGGTTCTAACCTGTTGCCT (site ACAGACGCTAG)”, 0.858.
In the case of “ACAGGCGCTTGGGTTCTAACCTGTTGCCT (site ACAGCCGCTAG)” it was 0.617; in that of “ACAGGCGCTTGGGTTCTAACCTGTTGCCT (site ACAGGCGCTAG)”, 0.673; in that of “ACAGGCGCTTGGGTTCTAACCTGTTGCCT (site ACAGTCGCTAG)”, 0.0488.
Turning to “ACAGGTGCTTGGGTTCTAACCTGTTGCCT (site ACAGGTGCTAG)”, the “recombinant barcode read abundance (log10)” value was found to be 1.98.
Next, “ACAGGTGCTTGGGTTCTAACCTGTTGCCT (site ACATGTGCTAG)”: 0.0807.
Turning to “ACAGTAGCTTGGGTTCTAACCTGTTGCTG (site ACAATAGCTCA)”, the “recombinant barcode read abundance (log10)” value came to 0.181.
Next, “ACAGTAGCTTGGGTTCTAACCTGTTGCTG (site ACACTAGCTCA)”: 0.0586; “ACAGTAGCTTGGGTTCTAACCTGTTGCTG (site ACAGTAGCTCA)”: 1.87; “ACAGTAGCTTGGGTTCTAACCTGTTGCTG (site ACATTAGCTCA)”: 0.0402.
In the case of “ACAGTCGCTTGGGTTCTAACCTGTTGCCT (site ACAGACGCTAG)” it was 0.229; in that of “ACAGTCGCTTGGGTTCTAACCTGTTGCCT (site ACAGCCGCTAG)”, 0.0854.
Consider “ACAGTCGCTTGGGTTCTAACCTGTTGCCT (site ACAGGCGCTAG)”, for which the “recombinant barcode read abundance (log10)” value was 0.
Next, “ACAGTCGCTTGGGTTCTAACCTGTTGCCT (site ACAGTCGCTAG)”: 1.4.
